# In patent publication US4725683A, “Fluorophenoxyphenoxypropionates and derivatives thereof” (The Dow Chemical Company, priority 1985, dated 1988):
# Legend:
# Assay in all cases: Preemergent activity
# Type in all cases: in vivo
# Barnyard Grass = settings: Echinochloa crus-galli, pre-emergence, read-out: Preemergence Control; for pest or weed control at 70 g/ha: 0.07 kgs/hectare; for pest or weed control at 140 g/ha: 0.14 kgs/hectare; for pest or weed control at 280 g/ha: 0.28 kgs/hectare; for pest or weed control at 560 g/ha: 0.56 kgs/hectare; for pest or weed control at 1120 g/ha: 1.12 kgs/hectare
# Description: (§1) In a representative operation, 2-[4-(2-fluoro-4-trifluoromethylphenoxy)phenoxy]propionic acid methyl ester, to be utilized in a series of tests, is dissolved in acetone to one half of the final volume (twice the final concentration) to be used and the acetone solution in each case is admixed with an equal volume of water containing 0.1 percent by weight of Tween-20 surface active material (Tween-20 is a trademark of Atlas Chemical Company). The composition, generally in the nature of an emulsion, was employed to treat separate respective seed beds of sandy loam soil of good nutrient content wherein each seed bed contained separate groups of good viable seeds, each group being of one of a known plant species. The various beds were positioned side by side and exposed to substantially identical conditions of temperature and light. Each bed was maintained so as to prevent any interaction with the test compound in different seed beds. Each seed bed was treated with the composition as a spray employing conventional spraying equipment to deposit a predetermined amount of the compound uniformly throughout the surface of the bed. Another seed bed was treated only with the acetone-Tween-20 water mixture with no chemical added to serve as a control.
# Johnson Grass = settings: Sorghum halepense, pre-emergence, read-out: Preemergence Control; for pest or weed control at 70 g/ha: 0.07 kgs/hectare; for pest or weed control at 140 g/ha: 0.14 kgs/hectare; for pest or weed control at 280 g/ha: 0.28 kgs/hectare; for pest or weed control at 560 g/ha: 0.56 kgs/hectare; for pest or weed control at 1120 g/ha: 1.12 kgs/hectare
# Description: as §1
# Wheat = settings: Triticum aestivum, pre-emergence, read-out: Preemergence Control; for plant injury at 70 g/ha: 0.07 kgs/hectare; for plant injury at 140 g/ha: 0.14 kgs/hectare; for plant injury at 280 g/ha: 0.28 kgs/hectare; for plant injury at 560 g/ha: 0.56 kgs/hectare; for plant injury at 1120 g/ha: 1.12 kgs/hectare
# Description: as §1
# Wild Oats = settings: Avena fatua, pre-emergence, read-out: Preemergence Control; for pest or weed control at 70 g/ha: 0.07 kgs/hectare; for pest or weed control at 140 g/ha: 0.14 kgs/hectare; for pest or weed control at 280 g/ha: 0.28 kgs/hectare; for pest or weed control at 560 g/ha: 0.56 kgs/hectare; for pest or weed control at 1120 g/ha: 1.12 kgs/hectare
# Description: as §1
# Yellow Foxtail = settings: Setaria, pre-emergence, read-out: Preemergence Control; for pest or weed control at 70 g/ha: 0.07 kgs/hectare; for pest or weed control at 140 g/ha: 0.14 kgs/hectare; for pest or weed control at 280 g/ha: 0.28 kgs/hectare; for pest or weed control at 560 g/ha: 0.56 kgs/hectare; for pest or weed control at 1120 g/ha: 1.12 kgs/hectare
# Description: as §1
Structure (SMILES),pest or weed control at 70 g/ha (Barnyard Grass) [%],pest or weed control at 140 g/ha (Barnyard Grass) [%],pest or weed control at 280 g/ha (Barnyard Grass) [%],pest or weed control at 560 g/ha (Barnyard Grass) [%],pest or weed control at 1120 g/ha (Barnyard Grass) [%],pest or weed control at 70 g/ha (Johnson Grass) [%],pest or weed control at 140 g/ha (Johnson Grass) [%],pest or weed control at 280 g/ha (Johnson Grass) [%],pest or weed control at 560 g/ha (Johnson Grass) [%],pest or weed control at 1120 g/ha (Johnson Grass) [%],plant injury at 70 g/ha (Wheat) [%],plant injury at 140 g/ha (Wheat) [%],plant injury at 280 g/ha (Wheat) [%],plant injury at 560 g/ha (Wheat) [%],plant injury at 1120 g/ha (Wheat) [%],pest or weed control at 70 g/ha (Wild Oats) [%],pest or weed control at 280 g/ha (Wild Oats) [%],pest or weed control at 560 g/ha (Wild Oats) [%],pest or weed control at 1120 g/ha (Wild Oats) [%],pest or weed control at 70 g/ha (Yellow Foxtail) [%],further results
"CCCCOC(=O)C(C)Oc1ccc(Oc2ccc(Br)cc2F)cc1 (stereo not shown) [O(CH2)3 CH3, Propionic acid: 2-(4-(4-bromo-2-fluorophenoxy)phenoxy), n-butyl ester]",0,70,100,100,100,0,0,65,100,100,0,0,0,30,30,0,50,80,100,0,pest or weed control at 140 g/ha (Wild Oats): 0%; pest or weed control at 140 g/ha (Yellow Foxtail): 40%; pest or weed control at 280 g/ha (Yellow Foxtail): 95%; pest or weed control at 560 g/ha (Yellow Foxtail): 100%; pest or weed control at 1120 g/ha (Yellow Foxtail): 100%
CCCCCCCCOC(=O)C(C)Oc1ccc(Oc2ccc(Br)cc2F)cc1 (stereo not shown) [O(CH2)7 CH3],9,95,100,100,100,0,0,100,100,100,0,0,0,0,90,0,100,100,100,0,pest or weed control at 140 g/ha (Wild Oats): 0%; pest or weed control at 140 g/ha (Yellow Foxtail): 0%; pest or weed control at 280 g/ha (Yellow Foxtail): 80%; pest or weed control at 560 g/ha (Yellow Foxtail): 90%; pest or weed control at 1120 g/ha (Yellow Foxtail): 100%
C=CCOC(=O)C(C)Oc1ccc(Oc2ccc(Br)cc2F)cc1 (stereo not shown) [OCH2 CCH2],95,100,100,100,100,0,0,80,90,100,0,0,0,0,70,0,40,70,70,30,pest or weed control at 140 g/ha (Wild Oats): 0%; pest or weed control at 140 g/ha (Yellow Foxtail): 30%; pest or weed control at 280 g/ha (Yellow Foxtail): 90%; pest or weed control at 560 g/ha (Yellow Foxtail): 100%; pest or weed control at 1120 g/ha (Yellow Foxtail): 100%
C#CCOC(=O)C(C)Oc1ccc(Oc2ccc(Br)cc2F)cc1 (stereo not shown) [OCH2CCH],0,20,100,100,100,0,20,50,100,100,0,0,0,0,0,0,50,50,70,0,pest or weed control at 140 g/ha (Yellow Foxtail): 60%; pest or weed control at 280 g/ha (Yellow Foxtail): 95%; pest or weed control at 560 g/ha (Yellow Foxtail): 100%; pest or weed control at 1120 g/ha (Yellow Foxtail): 100%
"CC(Oc1ccc(Oc2ccc(Br)cc2F)cc1)C(=O)O (stereo not shown) [OH, 2-(4-(4-Bromo-2-fluorophenoxy)phenoxy)propionic acid]",50,95,100,100,100,0,60,80,100,100,0,0,0,0,30,0,90,95,100,0,pest or weed control at 140 g/ha (Wild Oats): 100%; pest or weed control at 140 g/ha (Yellow Foxtail): 0%; pest or weed control at 280 g/ha (Yellow Foxtail): 90%; pest or weed control at 560 g/ha (Yellow Foxtail): 100%; pest or weed control at 1120 g/ha (Yellow Foxtail): 100%
